Reference: patent US5614520A, “2-arylthiazole derivatives and pharmaceutical composition thereof” (priority 1990, dated 1997)

Tests used:
xanthine oxidase = biological target: T1, xanthine oxidase (Bos taurus, UniProt P80457); test: In vitro determination of xanthine oxidase (XOD) inhibition; format: biochemical; conditions: xanthine oxidase from butter milk, xanthine substrate, pH 7.4, 37° C.
T1 construct: purchased Sigma Chemical Company; host or cells: butter milk
Description: (1) Preparation of test compounds:
Test compounds (compounds of Ex. No. listed in Table 1) were dissolved in dimethylsulfoxide and diluted with a 50 mM phosphate buffer to prepare aqueous solutions respectively having predetermined concentrations.
The inhibition rate was determined by the following equation: [formula]
The inhibition (%) was determined on each test compound prepared according to (1), and the IC50 value on the xanthine oxidase (XOD) inhibition was calculated from the value of inhibition.

interleukin 1 production = test: Interleukin 1 production inhibitory activity (LPS, abdominal exuded macrophage, ELISA); format: cell-based, BALB/c mouse; conditions: 10^-6 M, 1 μg/ml LPS, 24 hours, mouse macrophage
Description: 1 ml of a 5% oyster glycogen solution was intra-abdominally administered to a BALB/c mouse (male, 8 weeks in age), and 4 days after the administration, the infiltrated abdominal exuded cells were adhered to a plastic dish for 2 hours, and 1 μg/ml of LPS was allowed to act on macrophage (1×10^6 cells). Interleukin 1 extricated on the supernatant in 24 hours was measured by an ELISA technique. The test compound (compounds of Ex. No. described in Table 3) was prepared so as to have a concentration of 10^-6 M, and the interleukin 1 production inhibitory activity was, expressed in terms of the percentage inhibition based on the amount of production of the control.

serum uric acid = test: Determination of oral administration: lowering of serum uric acid in mice; format: in vivo, ICR male mice; conditions: ICR male mice, oral, 1 mg/kg, 2 hours after administration, serum; for inhibition in vivo at 1 mg/kg: Mus musculus, read-out: Activity of lowering uric acid
Description: Test compounds suspended in a 5% gum arabic solution was forcibly administered by oral administration (compounds of Ex. No. of Table 2, dose: 1 mg/kg) to ICR male mice (age: about 7 weeks) (one group: 6 mice) by means of an oral probe. 2 hours after the administration, thoracotomy was conducted under etherization to collect blood from the heart, and serum was removed by a conventional process. The serum uric acid was measured by a biochemical automatic analyzer (Flexigem; Electro-Nucleonics, Inc.) by using a uric acid measurement kit (UA reagent; International Reagent) to determine the percentage of the lowering of uric acid. [formula]

T1 sequence (P80457 whole entry): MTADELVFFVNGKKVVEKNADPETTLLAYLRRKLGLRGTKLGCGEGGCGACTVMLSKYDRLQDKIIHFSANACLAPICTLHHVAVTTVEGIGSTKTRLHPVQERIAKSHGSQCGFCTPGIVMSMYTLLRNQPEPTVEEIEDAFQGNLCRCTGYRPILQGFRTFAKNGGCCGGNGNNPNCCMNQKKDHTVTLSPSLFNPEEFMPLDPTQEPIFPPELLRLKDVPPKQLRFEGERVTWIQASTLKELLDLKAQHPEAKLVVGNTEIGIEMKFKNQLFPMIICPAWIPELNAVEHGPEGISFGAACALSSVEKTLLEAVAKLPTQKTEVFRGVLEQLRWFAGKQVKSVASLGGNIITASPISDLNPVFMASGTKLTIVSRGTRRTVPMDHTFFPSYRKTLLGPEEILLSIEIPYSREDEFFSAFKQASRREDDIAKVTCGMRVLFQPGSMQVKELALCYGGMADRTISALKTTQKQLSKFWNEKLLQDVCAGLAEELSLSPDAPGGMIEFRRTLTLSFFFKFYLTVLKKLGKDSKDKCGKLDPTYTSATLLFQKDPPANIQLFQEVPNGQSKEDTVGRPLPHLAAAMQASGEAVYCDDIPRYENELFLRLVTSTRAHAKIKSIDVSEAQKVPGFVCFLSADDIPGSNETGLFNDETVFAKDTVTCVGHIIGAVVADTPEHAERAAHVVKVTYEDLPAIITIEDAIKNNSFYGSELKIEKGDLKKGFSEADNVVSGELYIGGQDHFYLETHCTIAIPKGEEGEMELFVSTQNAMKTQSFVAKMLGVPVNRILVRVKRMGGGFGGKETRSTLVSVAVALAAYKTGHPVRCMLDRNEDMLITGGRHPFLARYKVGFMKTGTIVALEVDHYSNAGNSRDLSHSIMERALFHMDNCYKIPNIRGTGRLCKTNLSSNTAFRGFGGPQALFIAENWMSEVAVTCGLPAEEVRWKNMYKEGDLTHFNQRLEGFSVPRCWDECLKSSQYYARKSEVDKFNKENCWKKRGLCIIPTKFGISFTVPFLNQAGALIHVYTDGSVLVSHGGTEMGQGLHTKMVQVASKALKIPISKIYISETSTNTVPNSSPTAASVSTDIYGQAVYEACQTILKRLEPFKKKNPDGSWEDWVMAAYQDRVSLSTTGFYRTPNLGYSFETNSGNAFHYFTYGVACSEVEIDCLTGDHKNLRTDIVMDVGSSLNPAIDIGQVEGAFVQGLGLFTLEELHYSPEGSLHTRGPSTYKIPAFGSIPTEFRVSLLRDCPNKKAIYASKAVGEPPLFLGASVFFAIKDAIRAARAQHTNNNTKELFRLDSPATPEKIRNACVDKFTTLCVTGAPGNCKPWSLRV

Row | IC50 (xanthine oxidase) [nM] | Compound | inhibition at 1 µM (interleukin 1 production) [%] | inhibition in vivo at 1 mg/kg (serum uric acid) [%] | Activity of lowering uric acid (serum uric acid) [%]
1 | 45 | CC(C)Oc1ccc(-c2nc(O)c(C(=O)O)s2)cc1 [Example 22, 4-Hydroxy-2-(4-isopropoxyphenyl)-5-thiazolecarboxylic acid] | 45 | – | –
2 | 46 | Cc1nc(-c2ccc(OCC3CCCCC3)cc2)sc1C(=O)O [Example 7, 2-(4-Cyclohexylmethyloxyphenyl)-4-methyl-5-thiazolecarboxylic acid] | 39 | – | –
3 | 0.67 | Cc1nc(-c2ccc(OCCC(C)C)c([N+](=O)[O-])c2)sc1C(=O)O [Example 40, 2-(4-Isopentyloxy-3-nitrophenyl)-4-methyl-5-thiazolecarboxylic acid] | 36 | 85 | –
4 | 310 | Cc1nc(-c2ccc(C(F)(F)F)cc2)sc1C(=O)O [Example 6, 4-Methyl-2-(4-trifluoromethylphenyl)-5-thiazolecarboxylic acid] | 38 | – | –
5 | 0.64 | Cc1nc(-c2ccc(OCC(C)(C)C)c([N+](=O)[O-])c2)sc1C(=O)O [Example 43, 2-(4-neopentyloxy-3-nitrophenyl)-4-methyl-5-thiazolecarboxylic acid] | 39 | 85 | –
6 | 2.9 | CCOCCOc1ccc(-c2nc(C)c(C(=O)O)s2)cc1Br [Example 64, 2-(3-Bromo-4-(2-ethoxyethyloxy)phenyl)-4-methyl-5-thiazolecarboxylic acid] | 28 | 25 | –
7 | 1.5 | Cc1nc(-c2ccc(OCC(C)C)c(F)c2)sc1C(=O)O [Example 67, 2-(3-fluoro-4-isobutyloxyphenyl)-4-methyl-5-thiazolecarboxylic acid] | 48 | 50 | –
8 | 12 | Cc1nc(-c2ccc(OCCCCC(=O)O)cc2)sc1C(=O)O [Example 12, 2-(4-(4-Carboxybutyloxy)phenyl)-4-methyl-5-thiazolecarboxylic acid] | 42 | – | –
9 | 3.2 | Cc1nc(-c2ccc(C(=O)O)cc2)sc1C(=O)O [Example 14, 2-(4-Carboxyphenyl)-4-methyl-5-thiazolecarboxylic acid] | 35 | – | –
10 | 10 | Cc1nc(-c2cc(Cl)cc(Cl)c2)sc1C(=O)O [Example 27, 2-(3,5-Dichlorophenyl)-4-methyl-5-thiazolecarboxylic acid] | 43 | – | –
11 | 77 | Cc1nc(-c2ccc(OCC(=O)O)cc2)sc1C(=O)O [Example 11, 2-(4-Carboxymethyloxyphenyl)-4-methyl-5-thiazolecarboxylic acid] | 23 | – | –
12 | 0.63 | Cc1nc(-c2cccc(C(F)(F)F)c2)sc1C(=O)O [Example 5, 4-Methyl-2-(3-trifluoromethylphenyl)-5-thiazolecarboxylic acid] | 60 | 37 | –
13 | 0.63 | Cc1nc(-c2ccc(N3CCCCC3)c(Br)c2)sc1C(=O)O [Example 66, 2-(3-Bromo-4-piperidinophenyl)-4-methyl-5-thiazolecarboxylic acid] | – | 65 | –
14 | 1.5 | Cc1nc(-c2cc(Cl)c(OCC(C)C)c(Cl)c2)sc1C(=O)O [Example 69, 2-(3,5-Dichloro-4-isobutyloxyphenyl)-4-methyl-5-thiazolecarboxylic acid] | – | 55 | –
15 | 2.7 | Cc1nc(-c2ccc(OCCC(C)C)c(Cl)c2)sc1C(=O)O [Example 52, 2-(3-Chloro-4-isopentyloxyphenyl)-4-methyl-5-thiazolecarboxylic acid] | 33 | 47 | –
16 | 2.4 | Cc1nc(-c2ccc(OCC(C)C)c([N+](=O)[O-])c2)sc1C(=O)O [Example 34, 2-(4-Isobutyloxy-3-nitrophenyl)-4-methyl-5-thiazolecarboxylic acid] | – | 76 | –
17 | 150 | Cc1nc(-c2cccc(C(=O)Nc3ccc(Cl)cc3)c2)sc1C(=O)O [Example 15, 2-(3-(4-chlorophenylcarbamoyl)phenyl)-4-methyl-5-thiazolecarboxylic acid] | 38 | – | –
18 | 26 | Cc1nc(-c2cc(Cl)c(O)c(Cl)c2)sc1C(=O)O [Example 28, 2-(3,5-Dichloro-4-hydroxyphenyl)-4-methyl-5-thiazolecarboxylic acid] | 52 | – | –

Row | IC50 (xanthine oxidase) [nM] | Compound | inhibition at 1 µM (interleukin 1 production) [%] | inhibition in vivo at 1 mg/kg (serum uric acid) [%] | Activity of lowering uric acid (serum uric acid) [%]
19 | 1.9 | CCOCCOc1ccc(-c2nc(C)c(C(=O)O)s2)cc1C#N [Example 80, 2-(3-CYano-4-(2-ethoxyethyloxy)phenyl)-4-methyl-5-thiazolecarboxylic acid] | – | 87 | –
20 | 1.8 | CCN(CC)c1ccc(-c2nc(C)c(C(=O)O)s2)cc1[N+](=O)[O-] [Example 37] | – | 74 | –
21 | 1.2 | Cc1nc(-c2ccc(OCCN3CCCCC3)c(Cl)c2)sc1C(=O)O [Example 57, 2-(3-Chloro-4-(2-piperidinoethyloxy)phenyl)-4-methyl-5-thiazolecarboxylic acid] | – | 15 | –
22 | 0.7 | Cc1nc(-c2cc(Cl)c(OCCN3CCOCC3)c(Cl)c2)sc1C(=O)O [Example 72, 2-(3,5-Dichloro-4-(2-morpholinoethyloxy)phenyl)-4-methyl-5-thiazolecarboxylic acid] | – | 48 | –
23 | 67 | Cc1nc(-c2cccc(OC(C)C)c2)sc1C(=O)O [Example 1, 2-(3-isopropoxyphenyl)-4-methyl-5-thiazolecarboxylic acid] | 83 | – | –
24 | 0.64 | Cc1nc(-c2ccc([S+]([O-])c3ccc(Cl)cc3)c(Cl)c2)sc1C(=O)O (stereo not drawn) [Example 62, 2-(3-chloro-4-(4'-chlorophenylsulfinyl)phenyl)-4-methyl-5thiazolecarboxylic acid] | – | 35 | –
25 | 0.24 | Cc1nc(-c2ccc(N3CCCCC3)c(Cl)c2)sc1C(=O)O [Example 60, 2-(3-Chloro-4-piperidinophenyl)-4-methyl-5-thiazolecarboxylic acid] | – | 55 | –
26 | 1.8 | 2-(4-morpholino-3-nitrophenyl)-4-methyl-5-thiazolecarboxylic acid [Example 38] | – | – | 91
27 | 1.6 | Cc1nc(-c2ccc(Sc3ccc(Cl)cc3)c(Br)c2)sc1C(=O)O [Example 65, 2-(3-Bromo-4-(4-chlorophenylthio)phenyl)-4-methyl-5-thiazolecarboxylic acid] | – | 42 | –
28 | 1.7 | Cc1nc(-c2ccc(N3CCOCC3)c(C#N)c2)sc1C(=O)O [Example 81, 2-(3-Cyano-4-morpholinophenyl)-4-methyl-5-thiazolecarboxylic acid] | – | 91 | –
29 | 0.51 | Cc1nc(-c2ccc(OCC(C)C)c(C=O)c2)sc1C(=O)O [Example 86, 2-(3-formyl-4-isobutyloxyphenyl)-4-methyl-5-thiazolecarboxylic acid] | – | 72 | –
30 | 1.9 | Cc1nc(-c2ccc(OCC(C)(C)C)c(C#N)c2)sc1C(=O)O [Example 78, 2-(3-Cyano-4-neopentyloxyphenyl)-4-methyl-5-thiazolecarboxylic acid] | – | 91 | –
31 | 2.4 | Cc1nc(-c2ccc(N3CCN(C)CC3)c([N+](=O)[O-])c2)sc1C(=O)O [Example 46, 4-methyl-2-(4-(4-methylpiperazinyl)-3-nitrophenyl)-5-thiazolecarboxylic acid] | – | 75 | –
32 | 2.9 | Cc1nc(-c2ccc(OCC(C)(C)C)c(Cl)c2)sc1C(=O)O [Example 54, 2-(3-Chloro-4-neopentyloxyphenYl)-4-methyl-5-thiazolecarboxylic acid] | – | 12 | –
33 | 7 | CCOCCOc1ccc(-c2nc(C)c(C(=O)O)s2)cc1Cl [Example 55, 2-(3-Chloro-4-(2-ethoxyethyloxy)phenyl)-4-methyl-5-thiazolecarboxylic acid] | – | 45 | –
34 | 0.3 | Cc1nc(-c2ccc(SC(C)C)c([N+](=O)[O-])c2)sc1C(=O)O [Example 35, 2-(4-isopropylthio-3-nitrophenyl)-4-methyl-5-thiazolecarboxylic acid] | – | 57 | –
35 | 1.5 | Cc1nc(-c2cc(Cl)c(OCCC(C)C)c(Cl)c2)sc1C(=O)O [Example 71, 2-(3,5-Dichloro-4-isopentyloxyphenyl)-4-methyl-5-thiazolecarboxylic acid] | – | 50 | –
36 | 2.1 | Cc1nc(-c2ccc(OCC(C)C)c(Cl)c2)sc1C(=O)O [Example 51, 2-(3-Chloro-4-isobutyloxyphenyl)-4-methyl-5-thiazolecarboxylic acid] | – | 78 | –
